Where two headings read alike, the source gives them in different places.
Test system: A2780cis cells
Assay: Photo- and cytotoxic activity determination (MTT), A2780cis cells, normoxia or hypoxia
Format: cell-based
Conditions: A2780cis; for inhibition at 250 µM: 2 h incubation in the dark, 48 h drug-free recovery
Description: Having shown that the Ir(III)-COUPY conjugates can sensitize both type I and II ROS through spectroscopic techniques and readily internalize into living cells, their photocytotoxicity was screened in various cancer cell lines. This screening included two representative melanoma cell lines (human A375 and […] human SK-MEL-28) and cancer cells with resistance to the clinical drug cisplatin. For the latter, both sensitive and cisplatin-resistant ovarian cancer cells (A2780 and A2780cis) as well as HeLa cells, which also show a degree of chemoresistance to the platinum anticancer drug in vitro,[54] were used. For the determination of dark and light cytotoxicity, dose–response curves were assayed from both conditions to provide the correspondent IC50 values, which correspond to the concentration needed for inhibition of cell growth by 50%. Phototherapeutic index (PI) was calculated as the ratio of dark to light IC50 value for each compound.
A375, HeLa, and SK-MEL-28 cells were cultured in Dulbecco’s modified Eagle medium (DMEM) supplemented with 10% FBS, L-glutamine, and 1% penicillin–streptomycin. A2780 and A2780cis cells were grown in RPMI-1640 cell medium supplemented with 10% fetal bovine serum (FBS) and 2 mM L-glutamine. Acquired resistance to cisplatin in the A2780cis cell line was maintained by adding cisplatin 1 μM to culture medium every second passage. Cells were cultured in a humidified incubator at 310 K with 5% CO2 atmosphere and subcultured two or three times a week with appropriate densities and were confirmed to be mycoplasma-free using a standard Hoechst DNA staining method.
A2780, A2780cis, HeLa, A375, and SK-MEL-28 cells were maintained at logarithmic growth-phase and cultured in 96-well plates at a density of 5000 cells/well in complete medium for 24 h at 310 K, 5% CO2 in a humidified incubator. For hypoxia experiments, a hypoxia condition was set up by Tissue Culture Service at University of Murcia using nitrogen (N2) to displace O2 down to a minimum of 2% in a Forma Steri-Cycle i160 incubator (Thermo Fisher Scientific). […] A light-based treatment schedule was performed as follows: 1 h incubation with the compounds in the dark, followed by 1 h incubation under irradiation conditions by placing the Photoreactor EXPO-LED from Luzchem (Canada) fitted with green lamps (final light intensity applied of 1.5 mW/cm^2 at λmax = 520 nm) inside the CO2 incubator. All the cell culture plates subjected to light irradiation included untreated controls to verify that cell viability was not affected by light. Then, treatment-containing media was removed, and fresh media was added for a 48 h cell recovery period; the temperature throughout the experiment remained at 310 K. Dark control samples were placed in the same dark conditions and then kept incubated for 1 h in the dark in the humidified CO2 incubator. Medium was then aspirated by suction, cells were loaded with 50 μL of MTT solution (1 mg/mL) for additional 4 h and then removed, and 50 μL of DMSO was added to solubilize the purple formazan crystals formed in active cells. The absorbance was measured at 570 nm using a microplate reader (FLUOstar Omega), and the IC50 values were calculated based on the inhibitory rate curves using the following equation [drawing 4] 4 where I represents the percentage inhibition of viability observed, Imax is the maximal inhibitory effect, IC50 is the concentration that inhibits 50% of maximal growth, C is the concentration of the treatment, and n is the slope of the semi-logarithmic dose–response sigmoidal curves. The non-linear fitting was performed using SigmaPlot 14.0 software. All experiments were performed in three independent studies with n = 3 replicates per concentration level. For a detailed phototoxicity procedure, ref ([43]) includes technical explanations.

`NCC(=O)CCC(=O)O` [5-ALA, 5-aminolevulinic acid, reference compound] was tested, and the inhibition at 250 µM (hypoxia, read-out: Partial inhibition (% of cell growth inhibition with respect to untreated controls), Hypoxia) was 1 ± 0.2%, the inhibition at 250 µM (normoxia, read-out: Partial inhibition (% of cell growth inhibition with respect to untreated controls), Normoxia) was 3.5 ± 0.4% and the IC50 (hypoxia 2% O2, 1 h incubation + 1 h green light 520 nm, 48 h drug-free, read-out: Hypoxia 520 nm IC50) was greater than 250 µM. For the same compound, the IC50 (hypoxia 2% O2, dark, tested up to 250 μM, read-out: Hypoxia Dark IC50) was greater than 250 µM, the IC50 (hypoxia, 520 nm, read-out: A2780cis Light 520 nm IC50 (microM) Hypoxia) was greater than 250 µM and the IC50 (hypoxia, dark, read-out: A2780cis Dark IC50 (microM) Hypoxia) was greater than 250 µM. For the same compound, the “Normoxia PI (phototherapeutic index)” value (normoxia 21% O2, 520 nm, dark tested up to 250 μM) was greater than 4.0, the IC50 (normoxia 21% O2, dark, tested up to 250 μM, read-out: Normoxia Dark IC50) was greater than 250 µM and the IC50 (normoxia, 520 nm, read-out: A2780cis Light 520 nm IC50 (microM) Normoxia) was 62 ± 12 µM. The IC50 (normoxia, dark, up to 250 microM, read-out: A2780cis Dark IC50 (microM) Normoxia) was greater than 250 µM.
